Experimental data reported in patent US12622917B2, “High-activity Wnt pathway inhibitor compound” (ADLAI NORTYE BIOPHARMA CO., LTD., priority 2020, dated 2026).

Tests used:
Assay type in all cases: cell-based
[1] = test system: Hela; assay: Proliferation inhibition, non-Wnt mutant control cell line Hela; conditions: Homo sapiens, Wnt-independent control cell line, 96 hours, read-out: Antiproliferative IC50 Hela
Source text: The cell lines used in the experiment are Colo205 and DU4475 cell lines whose Wnt pathway is continuously activated and whose proliferation is Wnt pathway-dependent; while the BELA and RKO cell lines, whose Wnt pathway is not activated under normal circumstances and the proliferation is independent of Wnt pathway, as control cell lines. It is Judged that the inhibitory effect of the compound of the present invention on Wnt-dependent proliferation is not caused by other non-specific toxicity.
Treat the Colo205, Du4475, HELA and RKO cell lines cultured in their respective mediums in the logarithmic growth phase, collect the cells and prepare a uniform cell suspension of known concentration, and then add it to the 96-well cell culture plate Cell suspension, so that each well contains 1000 cells. Put it into a 5% CO2 incubator and incubate at 37° C. for 20-24 h. On the second day, the fully dissolved, 3-fold serially diluted compound was added to each cell culture well, so that the final maximum concentration in the cell culture well was 20 uM, and the culture was continued for 96 hours. In this test, Promega's cell viability detection test is used for detection. The more the cells proliferate, the stronger the final signal intensity will be. The detection instrument is SpectraMax, full wavelength mode. The wells only added with DMSO were used as positive control wells, and the wells that were not inoculated with cells were used as negative control wells. […] The IC50 value of cell proliferation inhibition was used to evaluate the inhibitory effect of the compound on the Wnt pathway and the toxic effect on normal cells (Table 2).

[2] = test system: Colo205-LUC-TCF/LEF M1 reporter cell line (Wnt pathway); assay: Colo205-LUC-TCF/LEF M1 reporter gene (luciferase) inhibition; conditions: 4 hours incubation, luciferase readout
Method in brief: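 Luminescent readout of TCF/LEF-regulated luciferase after a 4 h, 37° C compound exposure in a stable Colo205 reporter clone (10,000 cells/well). Serial 3-fold dilutions started at 20 uM; IC50 derived using DMSO-treated cells and no-cell wells as controls.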

[3] = test system: DU4475; assay: Proliferation inhibition, Wnt mutant cell line DU4475; conditions: Homo sapiens, DU-4475; DU4475, Wnt pathway-dependent, 96 hours; read-out: Antiproliferative IC50 DU4475
Method in brief: (§1)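 Log-phase cells are plated (1000 per well) and allowed to settle for 20-24 h at 37° C. Compound is added in 3-fold steps, highest final concentration 20 uM, and growth continues for 96 hours before a Promega viability measurement, from which the IC50 is obtained.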

[4] = test system: Colo205; assay: Proliferation inhibition, Wnt mutant cell line Colo205; conditions: Homo sapiens, COLO 205; Colo205, Wnt pathway-dependent, 96 hours; read-out: Antiproliferative IC50 Colo205
Method in brief: as §1

[5] = test system: RKO; assay: Proliferation inhibition, non-Wnt mutant control cell line RKO; conditions: Homo sapiens, Wnt-independent control cell line, 96 hours, read-out: Antiproliferative IC50 RKO
Method in brief: as §1

| Compound | IC50 [1] [µM] | IC50 [2] [µM] | IC50 [3] [µM] | IC50 [4] [µM] | IC50 [5] [µM] |
| --- | --- | --- | --- | --- | --- |
| C[C@H]1Cn2ccc3nc(NCc4cnn(Cc5ccc(F)cc5)c4)nc(c32)N1C [61 (W2)] | 4.17 | 0.002 | 0.0118 | 0.0055 | 3.44 |
| C[C@H]1Cn2ccc3nc(NCc4cnn(Cc5ccc(F)cc5)c4)nc(c32)N1CCO [62 (W13)] | 7.21 | 0.014 | 0.0135 | 0.0133 | 6.54 |
| C[C@H]1CCn2ccc3nc(NCc4cnn(Cc5ccc(F)cc5)c4)nc(c32)N1C [63 (W22)] | 2.59 | 0.023 | 0.0363 | 0.0146 | 3.04 |
| Cc1cn2c3c(nc(NCc4cnn(Cc5ccc(F)cc5)c4)nc13)N(C)[C@@H](C)C2 [65 (W32)] | 3.49 | 0.02 | 0.0417 | 0.0435 | 1.72 |
| C[C@H]1Cn2ccc3nc(NCc4ccc(Oc5ccccc5)cc4)nc(c32)N1C [67 (W46)] | 1.09 | 0.034 | 0.0625 | 0.0604 | 1.19 |
| C[C@H]1Cn2ccc3nc(NCc4cnn(Cc5ccc(C(F)(F)F)nc5)c4)nc(c32)N1CC(F)(F)F [70 (W55)] | 1.41 | 0.012 | 0.0131 | 0.0131 | 1.73 |
| CN1c2nc(NCc3cnn(Cc4ccc(C(F)(F)F)nc4)c3)nc3ccn(c23)C[C@@H]1CO [71 (W56)] | > 10 | 0.02 | 0.0167 | 0.0135 | > 10 |
| [2H]c1cc2nc(NCc3cnn(Cc4ccc(C(F)(F)F)nc4)c3)nc3c2n1C[C@H](C)N3C [72 (W57)] | > 10 | 0.007 | 0.0028 | 0.0048 | 3.23 |
| C[C@H]1Cn2ccc3nc(NCc4ccc(OCc5ccccc5)cc4)nc(c32)N1C [74 (W69)] | 5.51 | 0.01 | 0.046 | 0.039 | 1.69 |
| CN1c2nc(NCc3cnn(Cc4ccc(C(F)(F)F)nc4)c3)nc3ccn(c23)C[C@@H]1C1CC1 [75 (W77)] | 3.86 | 0.015 | 0.0067 | 0.0092 | 4.26 |
| C[C@H]1Cn2ccc3nc(NCc4ccc(Oc5ccc(C(F)(F)F)nc5)nc4)nc(c32)N1C [77 (W86)] | 2.92 | 0.008 | 0.0051 | 0.0047 | 4.01 |
| C[C@H]1Cn2ccc3nc(NCc4ccc(Oc5ccc(C(F)(F)F)nc5)cc4)nc(c32)N1C [78 (W87)] | 0.914 | 0.028 | 0.0263 | 0.0278 | 1.42 |
| C[C@H]1Cn2ccc3nc(NCc4ccc(OCCOCC(F)(F)F)nc4)nc(c32)N1C [79 (W95)] | 3.67 | 0.02 | 0.0237 | 0.0439 | 6.89 |
| C[C@H]1Cn2ccc3nc(NCc4cnn(CCCC(F)(F)F)c4)nc(c32)N1C [81 (W105)] | > 10 | 0.017 | 0.0193 | 0.0334 | > 10 |
| C[C@H]1Cn2ccc3nc(NCc4cnn(CC5CCC(F)(F)CC5)c4)nc(c32)N1C [83 (W116)] | 4.9 | 0.01 | 0.0051 | 0.0051 | 7.47 |
